Data reported in US20220220106A1, “QUINOLINE COMPOUNDS AND PHARMACEUTICAL COMPOSITIONS AND USES THEREOF” (Academy of Military Medical Sciences, priority 2019, published 2022).

How the values were obtained:
RD cells = experiment: Detection of cytotoxicity in RD cells (CellTiter-Glo); format: cell-based; details: for TD50: 4 days, CellTiter-Glo, median toxic dose
Summary of the method: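 RD cells (1*10^5/mL) cultured 4 days at 37 °C with 10 compound concentrations from 3-fold dilution of a 400 μM pretreatment solution, final being 0.5 times that. Viability by CellTiter-Glo luminescence versus cell control; TD50 from S-curve fit; SI=TD50/IC50.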

mTORC1 = biological target: T1, mTORC1 (Homo sapiens, UniProt P42345); experiment: Western blot, phosphorylation of Thr389 of p70S6K1 in RD cells (mTORC1 inhibition); format: cell-based; details: 20 μM, 2 hours, Western blot (FIG. 1)
T1 construct: endogenous in cells; host or cells: RD cells
Protocol: In order to test the inhibitory activity of the synthesized compounds on the two mTOR complexes, the inhibitory activity experiments of mTORC1 and mTORC2 were carried out. Since mTORC1 and mTORC2 exerted their function by activating the phosphorylation of downstream substrates, the inhibitory activity of the compounds on mTORC1 and mTORC2 could be determined by detecting the phosphorylation levels of the Thr389 site of mTORC1 downstream substrate p70S6K1 and the Ser473 site of mTORC2 downstream substrate Akt.
Pretreatment of Compound:
(1) RD cells were cultured in DMEM medium containing 10% FBS and 1×PS (penicillin and streptomycin were at concentrations 100 IU and 100 μg/mL, respectively) at 37° C. and 5% CO2.
(2) The RD cells (5×10^5 cells/2 mL medium) were inoculated into a 6-well plate and incubated at 37° C. and 5% CO2 for 24 hours.
(3) The cells were washed once with PBS, and the cells were cultured in serum-free medium without nutrients overnight.
(4) Formulation of compounds: […]
Preparation of insulin medium: Insulin was diluted in DMEM medium containing 10% FBS and 1×PS so that the final concentration of insulin was 167 nM.
Pretreatment of compound to be tested: The compound was dissolved in DMSO so that the concentration of the test compound was 20 mM, and the compound was diluted in 167 nM insulin medium to reach a concentration of 20 μM.
Preparation of rapamycin solution: Rapamycin was dissolved in DMSO to a concentration of 10 mM, and the rapamycin was diluted in 167 nM insulin medium to reach a concentration of 20 μM.
(5) The serum-free medium in each well was removed.
(6) 2 mL of complete medium containing DMSO was added to each well as a control carrier. The final concentration of DMSO was 0.2%.
(7) 2 mL of 20 μM rapamycin solution and 20 μM the compound to be tested were added to the designated wells, respectively. The final concentration of DMSO was 0.2%.
(8) The cells were incubated for 2 hours at 37° C. and 5% CO2.
Protein extraction and concentration determination:
(1) The cells were washed once with refrigerated PBS, and then the PBS was discarded.
(2) 150 μL of cell extraction buffer (RIPA, […], catalog number: C1053) was transferred into each well to lyse the cells, and then the resulting cell solution were incubated on ice for 30 minutes.
(3) Centrifugation was performed at 14000 rpm (13000× g) for 30 minutes at 4° C.
(4) The supernatant was transferred into a new eppendorf tube, and the cell lysate was stored at −80° C. before testing.
(5) The protein concentration was determined by BCA method.
Preparation of Buffer Solutions:
(1) 100× Protease inhibitor (Beyotime, catalog number: P1005): 1 mL of redistilled water was added to the protease inhibitor and stirred gently until the solid was completely dissolved.
(2) Lysis Buffer: […] of 100× protease inhibitor and 2× phosphatase inhibitor Cocktails PhosSTOP (Beyotime, catalog number: P1082) were added to 100 mL of the cell extract, and stirred gently until it was completely dissolved.
(3) Electrophoresis Running Buffer:
10×MOPS buffer: 52.33 g of MOPS, 30.29 g of Tris base, 10 mL of 0.5 mol/L EDTA (pH 8.5) and 5 g of SDS was dissolved in 400 mL of redistilled water, stirred to dissolve, and the pH was adjusted to 7.5, then redistilled water was added again to reach a volume of 500 mL; 1×MOPS: 100 mL of 10×MOPS was diluted with redistilled water to 1000 mL.
(4) 1× Transfer Buffer: […] of 10× transfer buffer (144 g of glucine, 30.3 g of trisbase, and distilled water were mixed to reach a volume of 1 L) and 400 mL of methanol were dissolved in 1500 mL of redistilled water, and then the redistilled water was added to reach a volume of 2000 mL. […]

## CC(=O)/C=C/c1cnc2ccc(-c3ccc(C)nc3)cc2c1Nc1cccc(C(F)(F)F)c1 [HTL-2-38, (E)-6-[3-(6-methyl)pyridyl]-4-[3-(trifluoromethyl)phenyl]aminoquinoline-3-butenone]
RD cells
  TD50: 8.71 ± 1.53 µM
mTORC1
  p70 phosphorylation expression level: significantly down-regulate

## NC(=O)c1ccc(-c2ccc3ncc4oc(=O)n(-c5cccc(C(F)(F)F)c5)c4c3c2)cc1 [HTL-5-21, 8-(4-carbamoyl)phenyl-1-[3-(trifluoromethyl)phenyl]oxazolo[5,4-c]quinolin-2(1H)-one]
RD cells
  TD50: 6.95 ± 1.23 µM
mTORC1
  p70 phosphorylation expression level: significantly down-regulate

## Nc1cccc(Nc2ccc3ncc4ccc(=O)n(-c5cccc(C(F)(F)F)c5)c4c3c2)c1 [HTL-6-11, 9-(3-aminophenyl)imino-2-oxo-1-[3-(trifluoromethyl)phenyl]-1,2-dihydrobenzo[h][1,6]naphthyridine]
RD cells
  TD50: 7.58 ± 1.24 µM
mTORC1
  p70 phosphorylation expression level: significantly down-regulate

## Nc1cccc(Nc2ccc3ncc4ccc(=O)n(-c5cccc(C(F)(F)F)c5)c4c3c2)n1 [HTL-6-12, 9-[2-(6-aminopyridyl)]imino-2-oxo-1-[3-(trifluoromethyl)phenyl]-1,2-dihydrobenzo[h][1,6]naphthyridine]
RD cells
  TD50: 5.19 ± 0.56 µM
mTORC1
  p70 phosphorylation expression level: significantly down-regulate

## NC(=O)/C=C/c1ccc2ncc3oc(=O)n(-c4cccc(C(F)(F)F)c4)c3c2c1 [HTL-6-30, (E)-8-(2-carbamoyl-vinyl)-1-[3-(trifluoromethyl)phenyl]oxazolo[5,4-c]quinolin-2(1H)-one]
RD cells
  TD50: 7 ± 0.09 µM
mTORC1
  p70 phosphorylation expression level: significantly down-regulate

## CCC(=O)Nc1ccc(-c2ccc3ncc4ccc(=O)n(-c5cccc(C(F)(F)F)c5)c4c3c2)cn1 [HTL-6-45, 9-[3-(6-propionylamino)pyridyl]-2-oxo-1-[3-(trifluoromethyl)phenyl]-1,2-dihydrobenzo[h][1,6]naphthyridine]
RD cells
  TD50: 0.04 ± 0.02 µM
mTORC1
  p70 phosphorylation expression level: significantly down-regulate

## O=c1ccc2cnc3ccc(-c4ccc5ncccc5c4)cc3c2n1-c1cccc(C(F)(F)F)c1 [HTL-6-47, 9-(6-quinolyl)-2-oxo-1-[3-(trifluoromethyl)phenyl]-1,2-dihydrobenzo[h][1,6]naphthyridine]
RD cells
  TD50: 0.03 ± 0.02 µM
mTORC1
  p70 phosphorylation expression level: significantly down-regulate

## O=c1ccc2cnc3ccc(-c4cccnc4F)cc3c2n1-c1cccc(C(F)(F)F)c1 [HTL-6-48, 9-[3-(2-fluoro)pyridyl]-2-oxo-1-[3-(trifluoromethyl)phenyl]-1,2-dihydrobenzo [h][1,6]naphthyridine]
RD cells
  toxicity, in words: relatively low toxicity
  TD50: 1.23 ± 1.20 µM
mTORC1
  p70 phosphorylation expression level: significantly down-regulate

## Cc1ncccc1-c1ccc2ncc3ccc(=O)n(-c4cccc(C(F)(F)F)c4)c3c2c1 [HTL-6-49, 9-[3-(2-methyl)pyridyl]-2-oxo-1-[3-(trifluoromethyl)phenyl]-1,2-dihydrobenzo[h][1,6]naphthyridine]
RD cells
  TD50: 0.07 ± 0.00 µM
mTORC1
  p70 phosphorylation expression level: significantly down-regulate

## O=c1ccc2cnc3ccc(-c4cc[nH]n4)cc3c2n1-c1cccc(C(F)(F)F)c1 [HTL-6-50, 9-[(1H)-3-pyrazolyl]-2-oxo-1-[3-(trifluoromethyl)phenyl]-1,2-dihydrobenzo[h][1,6]naphthyridine]
RD cells
  TD50: 0.17 ± 0.05 µM
mTORC1
  p70 phosphorylation expression level: significantly down-regulate

## O=c1ccc2cnc3ccc(-c4ccc(F)nc4)cc3c2n1-c1cccc(C(F)(F)F)c1 [HTL-7-01, 9-[3-(6-fluoro)pyridyl]-2-oxo-1-[3-(trifluoromethyl)phenyl]-1,2-dihydrobenzo[h][1,6]naphthyridine]
RD cells
  TD50: 0.23 ± 0.33 µM
mTORC1
  p70 phosphorylation expression level: significantly down-regulate

## COc1ccc(-c2ccc3ncc4ccc(=O)n(-c5cccc(C(F)(F)F)c5)c4c3c2)cn1 [HTL-7-03, 9-[3-(6-methoxy)pyridyl]-2-oxo-1-[3-(trifluoromethyl)phenyl]-1,2-dihydrobenzo[h][1,6]naphthyridine]
RD cells
  TD50: 0.13 ± 0.03 µM
mTORC1
  p70 phosphorylation expression level: significantly down-regulate

## O=C1Cc2cc(-c3ccc4ncc5ccc(=O)n(-c6cccc(C(F)(F)F)c6)c5c4c3)ccc2N1 [HTL-7-04, 9-[5-(2-oxo)indolyl]-2-oxo-1-[3-(trifluoromethyl)phenyl]-1,2-dihydrobenzo[h][1,6]naphthyridine]
RD cells
  TD50: 10.27 ± 7.81 µM
mTORC1
  p70 phosphorylation expression level: significantly down-regulate

## CCCC(=O)Nc1ccc(-c2ccc3ncc4ccc(=O)n(-c5cccc(C(F)(F)F)c5)c4c3c2)cn1 [HTL-7-05, 9-[3-(6-butyrylamino)pyridyl]-2-oxo-1-[3-(trifluoromethyl)phenyl]-1,2-dihydrobenzo[h][1,6]naphthyridine]
RD cells
  TD50: 0.75 ± 0.36 µM
mTORC1
  p70 phosphorylation expression level: significantly down-regulate

## COc1ncc(-c2ccc3ncc4ccc(=O)n(-c5cccc(C(F)(F)F)c5)c4c3c2)cn1 [HTL-7-06, 9-[5-(2-methoxy)pyrimidyl]-2-oxo-1-[3-(trifluoromethyl)phenyl]-1,2-dihydrobenzo[h][1,6]naphthyridine]
RD cells
  TD50: 0.17 ± 0.06 µM
mTORC1
  p70 phosphorylation expression level: significantly down-regulate

## CCCCC(=O)Nc1ccc(-c2ccc3ncc4ccc(=O)n(-c5cccc(C(F)(F)F)c5)c4c3c2)cn1 [HTL-7-08, 9-[3-(6-valerylamino)pyridyl]-2-oxo-1-[3-(trifluoromethyl)phenyl]-1,2-dihydrobenzo[h][1,6]naphthyridine]
RD cells
  TD50: 0.70 ± 0.48 µM
mTORC1
  p70 phosphorylation expression level: significantly down-regulate

## O=C(Cc1ccccc1)Nc1ccc(-c2ccc3ncc4ccc(=O)n(-c5cccc(C(F)(F)F)c5)c4c3c2)cn1 [HTL-7-10, 9-[3-(6-phenylacetylamino)pyridyl]-2-oxo-1-[3-(trifluoromethyl)phenyl]-1,2-dihydrobenzo[h][1,6]naphthyridine]
RD cells
  TD50: 0.74 ± 0.72 µM
mTORC1
  p70 phosphorylation expression level: significantly down-regulate

## COc1ccc(CC(=O)Nc2ccc(-c3ccc4ncc5ccc(=O)n(-c6cccc(C(F)(F)F)c6)c5c4c3)cn2)cc1 [HTL-7-11, 9-{3-[6-(4-methoxy)phenylacetylamino]pyridyl}-2-oxo-1-[3-(trifluoromethyl)phenyl]-1,2-dihydrobenzo[h][1,6]naphthyridine]
RD cells
  TD50: 0.19 ± 0.10 µM
mTORC1
  p70 phosphorylation expression level: significantly down-regulate

## O=c1ccc2cnc3ccc(C4=CCC5(CC4)OCCO5)cc3c2n1-c1cccc(C(F)(F)F)c1 [HTL-7-13, 9-(1,4-dioxa-spiro[4.5]dec-7-en-8-yl)-2-oxo-1-[3-(trifluoromethyl)phenyl]-1,2-dihydrobenzo[h][1,6]naphthyridine]
RD cells
  TD50: 200 ± 0 µM
mTORC1
  p70 phosphorylation expression level: significantly down-regulate
